{
  "source": "paper PMC6010545",
  "about": "“Identification of a Novel Polyamine Scaffold With Potent Efflux Pump Inhibition Activity Toward Multi-Drug Resistant Bacterial Pathogens” (Frontiers in Microbiology, 2018)",
  "key": {"A. baumannii (1643)": {"tested_on": "A. baumannii (1643)", "experiment": "Potentiation of levofloxacin", "format": "cell-based", "conditions": "increasing polyamine concentration"}, "[1]": {"tested_on": "P. aeruginosa proficient (1419) and deficient (1418) strain", "experiment": "Aztreonam combination testing in efflux proficient and deficient strains", "format": "cell-based", "conditions": "strain 1419 (efflux proficient); polyamine 12.5 μg mL^-1, ½ X MIC aztreonam", "protocol": "FIGURE 6 Confirming efflux pump inhibition by polyamines using efflux deficient strains. (A) A P. aeruginosa proficient (1419) and deficient (1418) strain were subjected to combination testing of the polyamines at 12.5 μg mL^-1 and ½ X MIC of aztreonam. Fold potentiation was calculated by dividing the CFU mL^-1 for aztreonam only by the CFU mL^-1 of the combined treatment groups. (B) Lead polyamine 247 was assessed for its ability to potentiate the activity of chloramphenicol toward S. aureus strain United States 300 and its norA mutant. Shown is the potentiated chloramphenicol EC90 calculated as described in A. Error bars are shown ± SEM."}, "MTT cytotoxicity assay": {"experiment": "MTT cytotoxicity assay", "format": "cell-based", "conditions": "human, 25 μg mL^-1, 48 h, read-out: percent recovery (cell viability)", "protocol": "To assess toxicity of polyamine compounds we used HepG2 human liver carcinoma cells and Hek293T human embryonic kidney epithelial cells. The viability of cell lines was determined using a 3-(4,5-dimethylthiazol-2-yl)-2,5-diphenyltetrazolium bromide (MTT) molecular probe as previously described by our group ([Fleeman et al., 2015]). Briefly, 247, 266, 271 (Hek293T), or 250, 271, 314 (HepG2), alongside control efflux pump inhibitor PaβN, were diluted in 10% DMF from 25 μg mL^-1 to 3 μg mL^-1 using twofold dilutions, before being added to cells in DMEM with 10% FBS and 1% penicillin/streptomycin. Cells were then incubated for 48 h at 37°C with 5% CO2. Following this, viability was assessed by the addition of MTT and measuring the OD570 in a Biotek plate reader. Percent recovery was determined compared to no drug controls."}, "[2]": {"tested_on": "tetracycline-resistant P. aeruginosa isolate 1419", "experiment": "Checkerboard potentiation assay with tetracycline", "format": "cell-based, Pseudomonas aeruginosa", "protocol": "Scaffold ranking library samples and individual polyamines were screened using checkerboard inhibitory assays to assess the potentiation of tetracycline and chloramphenicol. The test utilized a 96-well plate microtiter assay where the concentration of the scaffold or individual polyamine was decreased from 25 to 0.8 μg mL^-1 (average molarity of mixture samples 65 to 4 μM) along the rows, and the concentration of tetracycline or chloramphenicol was increased from 0.4 to 100 μM across the columns. […] However, with the known antibiotics, we report EC90 values in μM, which more accurately describes purified compounds. Plates were incubated statically at 37°C for 20 h, and the optical density (OD600) was determined using a Synergy 2 plate reader (BioTek). Potentiation modeling (detailed below) was performed to determine fold change in the 50 and 90% effective concentration of tetracycline or chloramphenicol.\nPotentiation was quantified using a mathematical model developed by our group to assess the ability of library samples and individual compounds to effectively enhance the activity of tetracycline or chloramphenicol ([Hoel, 1987]). […] In this way, only libraries and compounds that potentiated tetracycline or chloramphenicol activity were pursued. The model is based on the following equation for modeling the percentage activity of a mixture of two agents with independent action ([Hoel, 1987]):\n%Antibiotic & Comp(X1,X2)=%Antibiotic(X1)+%Comp(X2)−%Antibiotic(X1)⋅%Comp(X2)\nHere, x1 and x2 are the concentrations of antibiotic (tetracycline or chloramphenicol) and library/compound (Comp) tested, respectively. This equation can be rearranged to model the effective percent activity (EC) of the antibiotic alone, after accounting for compound activity:\nEff%Antibiotic(X1)=%Antibiotic & Compound(X1,X2)−%Compound(X2)/1−%Compound(X2)\nThus, the model-adjusted checkerboards show the antibiotic activity post-potentiation, and from that one can determine the true change in Mic."}},
  "note": "Where two headings read alike, the source gives them in different places.",
  "data": [
    {"smiles": "NCCC[C@H](CN)NC[C@H](Cc1ccccc1)NCCc1ccccc1", "note": "[compound 271]", "values": [
      {"measurement": "potentiation of levofloxacin", "setting": "A. baumannii (1643)", "value": "dose response curve of antibiotic potentiation"},
      {"measurement": "potentiation of aztreonam", "setting": "[1]", "value": "best potentiators of aztreonam"},
      {"measurement": "recovery at 48 h, 25 μg mL^-1", "setting": "MTT cytotoxicity assay; Hek293T human embryonic kidney epithelial cells, vs solvent only controls", "value": 75, "unit": "%"},
      {"measurement": "recovery at 48 h, 25 μg mL^-1", "setting": "MTT cytotoxicity assay; HepG2 human liver carcinoma cells", "value": 74, "unit": "%"},
      {"measurement": "FP* (fold potentiation of tetracycline EC50)", "setting": "[2]; 25 µg ml-1 TPI, EC50 tetracycline no TPI / with TPI", "value": 8.2, "unit": "fold"},
      {"measurement": "FP# (fold potentiation of tetracycline EC90)", "setting": "[2]; 25 µg ml-1 TPI, EC90 tetracycline no TPI / with TPI", "value": 8.5, "unit": "fold"},
      {"measurement": "FP* (fold potentiation of tetracycline EC50)", "setting": "[2]; EC50 tetracycline without EPI / with EPI", "value": 8.2, "unit": "fold"},
      {"measurement": "FP# (fold potentiation of tetracycline EC90)", "setting": "[2]; EC90 tetracycline without EPI / with EPI", "value": 8.5, "unit": "fold"},
      {"measurement": "EC50", "setting": "[2]; Pseudomonas aeruginosa, 20 h, inhibitor alone, 25 μg mL^-1 highest concentration tested, * = EC50, read-out: EPI* (inhibitory concentration of efflux pump inhibitor alone)", "value": "> 25", "unit": "µg/mL"},
      {"measurement": "TPI (inhibitory concentration of polyamine alone)", "setting": "[2]; polyamine alone, 25 µg ml-1 highest tested", "value": "> 25", "unit": "µg/mL"}
    ]}
  ]
}
